In patent US20020055094A1 (priority 1996, published 2002):
Where two headings read alike, the source gives them in different places.

Experiments:
[1] = target: whole virus influenza neuraminidase, influenza A strain NWS/Tokyo (Influenza A virus, UniProt P06820); assay: biochemical
[2] = target: whole virus influenza neuraminidase, influenza B strain B/Vic/02/87 (Influenza B virus, UniProt P27907); assay type: biochemical; conditions: read-out: Binding Constants (M) / inhibition constants (IC50), B/Vic/02/87
whole virus influenza neuraminidase, influenza B strain B/Vic/02/87, sequence (P27907 whole entry, looked up): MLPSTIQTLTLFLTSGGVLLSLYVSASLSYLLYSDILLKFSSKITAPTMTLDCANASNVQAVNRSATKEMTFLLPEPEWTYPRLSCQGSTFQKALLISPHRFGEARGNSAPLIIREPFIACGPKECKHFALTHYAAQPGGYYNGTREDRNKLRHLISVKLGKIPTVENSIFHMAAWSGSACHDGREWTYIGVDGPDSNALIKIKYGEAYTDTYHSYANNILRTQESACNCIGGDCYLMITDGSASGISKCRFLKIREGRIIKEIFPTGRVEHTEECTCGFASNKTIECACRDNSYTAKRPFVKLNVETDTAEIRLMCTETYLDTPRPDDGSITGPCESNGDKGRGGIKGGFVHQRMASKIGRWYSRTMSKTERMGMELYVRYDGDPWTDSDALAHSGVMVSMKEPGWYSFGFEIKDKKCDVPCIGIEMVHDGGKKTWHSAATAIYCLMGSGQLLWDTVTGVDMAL

[3] = system: influenza A NWS/Tokyo (H1N2); assay type: binding

whole virus influenza neuraminidase, influenza A strain NWS/Tokyo, sequence (P06820 whole entry, looked up): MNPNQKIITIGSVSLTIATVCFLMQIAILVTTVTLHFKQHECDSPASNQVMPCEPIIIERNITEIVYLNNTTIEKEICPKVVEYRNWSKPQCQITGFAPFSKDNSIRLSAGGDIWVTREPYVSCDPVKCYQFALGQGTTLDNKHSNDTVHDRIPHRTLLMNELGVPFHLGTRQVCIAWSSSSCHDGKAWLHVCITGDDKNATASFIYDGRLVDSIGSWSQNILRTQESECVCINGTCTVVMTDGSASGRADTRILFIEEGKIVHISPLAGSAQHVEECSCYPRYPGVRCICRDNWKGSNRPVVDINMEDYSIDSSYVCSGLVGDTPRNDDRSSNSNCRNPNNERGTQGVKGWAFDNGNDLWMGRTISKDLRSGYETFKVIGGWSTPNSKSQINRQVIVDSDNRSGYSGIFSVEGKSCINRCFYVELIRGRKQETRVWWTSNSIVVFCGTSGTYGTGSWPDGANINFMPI

## DANA [reference compound]
[1]; read-out: Binding Constants (M) / inhibition constants (IC50), NWS/Tokyo
  IC50: 4e-05 M

## CC(=O)N[C@H]1[C@H]([C@H](OC(=O)NCCCCCCNC(=O)CCCCCCCCCCCNC(=O)CCCC[C@@H]2SC[C@@H]3NC(=O)N[C@@H]32)[C@H](O)CO)OC(C(=O)O)=C[C@@H]1NC(=N)N [compound 22, 5-Acetamido-7-(6′-biotinylamino-dodecanoyl-aminohexyl) -carbamoyl-4-guanidino-2,3,4,5-tetradeoxy-D-glycero-D-galacto-non-2-enopyranosonic acid]
[1]
  IC50: 3e-08 M

## CC(=O)N[C@H]1[C@H]([C@H](OC(=O)NCCCCCCN)[C@H](O)CO)OC(C(=O)O)=C[C@@H]1NC(=N)N [compound 11, 5-acetamido-7-(6′-aminohexyl)-carbamoyloxy-4-guanidino-2,3,4,5-tetradeoxy-D-glycero-D-galacto-non-2-enopyranosonic acid]
[1]
  IC50: 2e-08 M

## CC(=O)N[C@H]1[C@H]([C@H](OC(=O)NCCCCCCNC(=O)NCCCCCCNC(=O)OC(C)(C)C)[C@H](O)CO)OC(C(=O)O)=C[C@@H]1N [compound 20, 5-acetamido-4-amino-7-[6′-(6″-tert-butoxycarbonyl-aminohexylureido) -hexyl]-carbamoyloxy-2,3,4,5-tetradeoxy-D-glycero-D-galacto-non-2-enopyanosonic acid]
[1]
  IC50: 1e-05 M

## CC(=O)N[C@H]1[C@H]([C@H](OC(=O)NCCCCCCNC(=O)OC(C)(C)C)[C@H](O)CO)OC(C(=O)O)=C[C@@H]1NC(=N)N [compound 13, 5-acetamido-7-(6′-tert-butoxycarbonylaminohexyl)-carbamoyloxy-4-guanidino-2,3,4,5-tetradeoxy-D-glycero-D-galacto-non-2-enopyranosonic acid]
[1]
  IC50: 2e-08 M

## CC(=O)N[C@H]1[C@H]([C@H](OC(=O)NCCCCCCNC(=O)CNC(=O)CNC(=O)CNC(=O)CCCC[C@@H]2SC[C@@H]3NC(=O)N[C@@H]32)[C@H](O)CO)OC(C(=O)O)=C[C@@H]1NC(=N)N [Compound No. 21, 5-acetamido-7-(6′-biotinylamino-tricrlycinamido-hexy) -carbamoyloxy-4-guanidino-2,3,4,5-tetradeoxy-D-glycerQ-D-galacto-non-2-enopyranosonic acid]
[1]
  IC50: 4e-08 M

## CC(=O)N[C@H]1[C@H]([C@H](OC(=O)NCCCCCCNC(=O)CCCCCNC(=O)CCCCCNC(=O)CCCCCNC(=O)CCCCCN)[C@H](O)CO)OC(C(=O)O)=C[C@@H]1NC(=N)N [compound 25, 5-acetamido-7-(6′-(6″-(6″′-aminocaproyl) -triaminocaproyl) -aminohexyl) -carbamoyloxy-4-guanidino-2,3,4,5-tetradeoxy-D-glycero-D-galacto-non-2-enopyranosonic acid]
[1]
  IC50: 5e-08 M

## CC(=O)N[C@H]1[C@H]([C@H](OC(=O)NCCCCCCNC(=O)CCCC[C@@H]2SC[C@@H]3NC(=O)N[C@@H]32)[C@H](O)CO)OC(C(=O)O)=C[C@@H]1NC(=N)N [compound 19, 5-acetamindo-7-(6′-biotinylaminohexyl),carbamoyloxy-4-guanidino-2,3,4,5-tetradeoxy-D-crlvero-D-galacto-non-2-enopyranosonic acid]
[1]
  IC50: 1e-08 M

## CC(=O)N[C@H]1[C@H]([C@H](OC(=O)NCCCCCCNC(=O)NCCCCCCN)[C@H](O)CO)OC(C(=O)O)=C[C@@H]1NC(=N)N [Compound No. 8, 5-acetamido-7-[6′-(6″-aminohexylureido)-hexyl]-carbamoyloxy-4-guanidino-2,3,4,5-tetradeoxy-D-glycero-D-galacto-non-2-enopyranosonic acid]
[1]
  IC50: 4e-08 M

## CC(=O)N[C@H]1[C@H]([C@H](OC(=O)NCCCCCCNC(=O)CCCCCNC(=O)CCCC[C@@H]2SC[C@@H]3NC(=O)N[C@@H]32)[C@H](O)CO)OC(C(=O)O)=C[C@@H]1NC(=N)N [compound 23, 5-Acetamido-7-(6′-biotinylamino-caproyl-aminohexyl) -carbamoyl-4-guanidino-2,3,4,5-tetradeoxy-D-glycero-D-galacto-non-enopyranosonic acid]
[1]
  IC50: 2e-08 M

## CC(=O)N[C@H]1[C@H]([C@H](OC(=O)NCCOCCOCCN)[C@H](O)CO)OC(C(=O)O)=C[C@@H]1NC(=N)N [compound 17, 5-acetamido-7-{2-[2-(2-aminoethoxy)-ethoxy]-ethyl}-carbamoyloxy-4-guanidino-2,3,4,5-tetradeoxy-D-glycero-D-galacto-non-2-enopyranosonic acid]
[1]
  IC50: 2e-08 M

## 5-acetamido-7-{6′-[6″-(6″′-biotinylaminocaproyl) -tri-amingcaroyl]-aminohexyl}-carbamoyloxy-4-guanidino -2,3,4,5-tetradeoxy-D-glycero-D-gaacto-non-2-enopyranosonic acid [Compound No. 26]
[2]
  IC50: 4e-08 M
[3]
  compound concentration giving the best results: 0.1 µM
  virus amount readily detected: 2.5×10^5 pfu/well
